Measurements: US20090053139A1, “Dendrimer based compositions and methods of using the same” (Regents of the University of Michigan, priority 2006, published 2009)

How the values were obtained:
[1] = tested on: KB cells; assay: Inhibition of KB cell growth (XTT assay / total cell protein); format: cell-based, human
Experimental: Cell culture and treatment.
Evaluation of dendrimer cytotoxicity. Cell growth was determined by assay of the total protein in lysates of treated cells using a bicinchoninic acid reagent (PIERCE, and by XTT assay, using a kit from Roche.
Because the binding of the conjugate to KB cells reaches maximal uptake within 1 h (Quintana et al, 2002. Pharmaceutical Research 19: 1310-1316), the effect of the G5-FI-FA-MTX on cell growth was initially tested by pre-incubation of cells with the conjugate for 1 h, followed by incubation in a drug-free medium for 5 d. […] When the cells were pre-incubated with dendrimers for 4 h, there was a modest decrease of about 10% in cell growth as determined by XTT assay. The cytotoxicity measurements were therefore done by incubation with the dendrimer for a minimum of 24 h, a pre-incubation time period shown to induce significant cytotoxicity.
Time course and dose dependent inhibition of cell growth. Previous studies have shown that MTX-induced cytotoxicity is detectable in vitro only if the medium is completely deprived of FA (See, e.g., Sobrero & Bertino, Int. J. Cell Cloning 4, 51 (1986)). The effect of the trifunctional dendrimers on cell growth was tested in cells incubated in a FA-deficient medium. Cells were treated with 300 nM conjugates (equivalent of 1500 nM MTX) or 1500 nM free MTX for 1-4 days, and cell proliferation was determined by estimation of cellular protein content. […] KB cells which express high and low FAR were incubated with 30 nM of the dendrimers for 1 hr at 37° C., rinsed, and the fluorescence of cells was determined by flow cytometric analysis (See. e.g., FIG. 21, left panel). […]
As the G5-FITC-FA-MTX preparation contained equimolar concentrations of MTX and FA, the effect of similar concentrations of free MTX and free FA on the inhibition of cell growth was determined. […] The cells were rinsed to remove the drugs and incubated with fresh medium for an additional 6 d, and total cell protein was determined. […]

[2] = tested on: human KB xenografts; assay: Tumor growth and survival of SCID mice bearing s.c. human KB xenografts; format: in vivo
Experimental: (§1) Delivery of targeted nanoparticle therapeutic.
Targeted drug delivery to tumor cells through the folate receptor. The efficacy of different doses of conjugates was tested on SCID CB-17 mice bearing s.c. human KB xenografts and was compared with equivalent and higher doses of free methotrexate. […] Six groups of SCID mice with five mice in each group were injected s.c. on one flank with 5×10^6 KB cells in 0.2 mL PBS suspension. The highest total dose of G5-FI-FA-MTX therapeutic used equals 55.0 mg/kg and is equivalent to a 5.0 mg/kg total cumulative dose of free methotrexate (FIG. 29). The therapeutic dose of the conjugate was compared with three cumulative doses of free methotrexate equivalent to 33.3, 21.7, and 5.0 mg/kg accumulated in 10 to 15 injections based on mouse survival. Saline and the conjugate without methotrexate (G5-FI-FA) were used as controls.
The equivalent dose of methotrexate delivered with both targeted conjugates to the surviving mice was higher than the dose of free methotrexate because all of the mice receiving free methotrexate died by day 66 of the trial (FIG. 30). The survival of mice from groups receiving G5-FI-FA-MTX or G5-FA-MTX conjugate indicate that tumor growth based on the end-point volume of 4 cm3 can be delayed by at least 30 days (FIG. 30). This value indicates the antitumor effectiveness of the conjugate because it mimics clinical end-points and requires observation of the mice throughout the progression of the disease. […] The tumor in this mouse was not palpable for the next 20 days up to the 60th day of the trial. […] Thus, in some embodiments, the present invention provides a composition comprising a dendrimer comprising a targeting agent, a therapeutic agent and an imaging agent. In preferred embodiments, the dendrimer is used for delivery, in a target specific manner, of a therapeutic agent (e.g., methotrexate) to tumor cells in vivo.

[3] = Toxicity of dendrimer conjugates and free methotrexate in SCID mice; format: in vivo
Description: as §1
Toxicity of dendrimer conjugates. […] No morphologic abnormalities were observed on the histopathology examination.
The remaining experimental groups had very uniform body weight fluctuations nonindicative of toxicity when compared with control groups with saline or conjugate without methotrexate.

With `Nc1nc2ncc(CNc3ccc(C(=O)N[C@@H](CCC(=O)O)C(=O)O)cc3)nc2c(=O)[nH]1` [FA, Folic Acid] the “reversal of MTX-induced growth arrest by free FA” value ([1]; 150 nM FA with 150 nM MTX, 24 h, then 6 d, total cell protein) was “almost completely reversed the growth-arrest caused by 150 nM MTX”.
In the case of `CN(Cc1cnc2nc(N)nc(N)c2n1)c1ccc(C(=O)N[C@@H](CCC(=O)O)C(=O)O)cc1` [MTX, Methotrexate], the “inhibition of cell growth (XTT assay)” value ([1]; 1, 2 or 3 days) is reported as “time-dependent cytotoxicity”, the “growth inhibition of free MTX versus equimolar MTX in conjugate” value ([1]; below 1 μM) is reported as “higher than with the equimolar concentrations of MTX in the G5-FITC-FA-MTX” and the “effect on tumor growth” value ([2]; cumulative dose equivalent to 5.0 mg/kg methotrexate (G5-FI-FA equimolar dendrimer)) is reported as “no effect on tumor growth”. For the same compound, the “effect on tumor growth” value ([2]; free methotrexate cumulative 33.3 and 21.7 mg/kg) was “affecting tumor growth”, the “survivors at termination of the trial” value ([2]; second 99-day trial) was “no mice surviving” and the liver histopathology ([3]; mouse, in vivo) was “advanced liver lesions, collections of inflammatory cells, and periportal inflammation”. For the same compound, the “toxicity (body weight)” value ([3]; total dose equivalent to 5.0 mg/kg free methotrexate) was “neither the total accumulated dose of therapeutic conjugate equivalent to 5.0 mg/kg free methotrexate nor free methotrexate at the same dose were toxic”.
